{
  "source": "paper PMC10997755",
  "about": "“Discovery of a small-molecule inhibitor that traps Polθ on DNA and synergizes with PARP inhibitors” (Nature Communications, 2024)",
  "key": {"[1]": {"experiment": "Colony survival, ola with or without RTX-161 (source data sheet Fig. 2 c; cell line not given)", "type": "cell-based"}, "Polθ-pol on DNA/RNA": {"biological_target": "T1, Polθ-pol on DNA/RNA (Homo sapiens, UniProt O75417)", "T1 construct": "purified recombinant human Polθ-pol (comprising amino acid residues 1792–2590); made in house", "T1 sequence (O75417 1792-2590)": "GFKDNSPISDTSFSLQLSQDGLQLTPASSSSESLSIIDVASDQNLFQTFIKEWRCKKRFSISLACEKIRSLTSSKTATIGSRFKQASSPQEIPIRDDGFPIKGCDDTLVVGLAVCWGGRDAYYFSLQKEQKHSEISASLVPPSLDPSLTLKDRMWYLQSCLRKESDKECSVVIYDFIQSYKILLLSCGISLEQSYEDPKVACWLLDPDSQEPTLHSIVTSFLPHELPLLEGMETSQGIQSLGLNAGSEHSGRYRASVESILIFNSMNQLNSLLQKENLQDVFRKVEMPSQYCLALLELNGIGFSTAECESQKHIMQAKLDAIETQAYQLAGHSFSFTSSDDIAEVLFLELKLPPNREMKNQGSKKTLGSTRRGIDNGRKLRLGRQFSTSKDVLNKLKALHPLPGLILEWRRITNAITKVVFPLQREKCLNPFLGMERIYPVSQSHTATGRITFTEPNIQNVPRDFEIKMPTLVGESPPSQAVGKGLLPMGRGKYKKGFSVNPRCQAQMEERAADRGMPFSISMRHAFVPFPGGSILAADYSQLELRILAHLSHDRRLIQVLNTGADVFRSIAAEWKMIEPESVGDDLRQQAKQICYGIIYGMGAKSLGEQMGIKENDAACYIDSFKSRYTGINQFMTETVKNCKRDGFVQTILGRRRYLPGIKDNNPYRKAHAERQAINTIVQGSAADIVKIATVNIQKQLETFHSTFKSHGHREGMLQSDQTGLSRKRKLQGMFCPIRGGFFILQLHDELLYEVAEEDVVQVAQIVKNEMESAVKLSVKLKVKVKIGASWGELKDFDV", "experiment": "Relative rate of ddCMP addition on DNA/RNA", "type": "biochemical", "conditions": "for Average % Extension (Single nt) / % Extension (Single nt) / % Extension of Control: RNA template; for Average % Extension (Single nt) / % Extension (Single nt): 2uM RTX-161; for Average % Extension (Single nt): average of 3 trials; for % Extension (Single nt) / % Extension of Control: single trials 1-3; for % Extension of Control: 2uM RTX-161 relative to DMSO", "method": "Relative rate of Polθ-pol dAMP addition. The relative rates of dAMP incorporation by Polq-pol in the presence of DMSO or MC160385 with various concentrations of dATP were measured using the following primer extension assay in vitro. 2 nM or Polθ-pol was incubated with 5’ ^32P-γ-ATP labeled 100 nM primer-template (RP469D/RP486) in 1X buffer (25 mM TrisHCl pH 7.8, 0.01% NP40, 10% glycerol, 1 mM DTT, 10 mM MgCl2, 0.1 mg/ml BSA) at room temp. 2.5% DMSO, 7.5 nM or 12 nM of MC160385 was added. Reactions were than initiated by the addition of 20, 50, 100, 200, or 300 μM dATP at room temp. Aliquots of the reactions were removed and terminated by the addition of 50 mM EDTA at 3, 3.5, 4 and 5 min after the reaction was initiated. Radio-labeled DNA was then resolved via denaturing 20% PAGE and visualized by Typhoon PhosphorImager (GE Amersham). Rates of dAMP incorporation were calculated from % extension of the prime-template which was determined using ImageJ software. Relative rate of ddCMP addition on DNA/DNA and DNA/RNA. 25 nM nucleic acid DNA/DNA or DNA/RNA primer-template (RP559/RP702 or RP559/RP702R) was mixed with 1X reaction buffer (20 mM TrisHCl pH 7.5, 0.01% NP-40, 0.5 mM DTT, 10% glycerol, 0.1 mg/ml BSA, 10 mM MgCl2) in the presence of 250 μM ddCTP at room temp. Next, 2 μM RTx-161 or 2.5% DMSO was added. Reactions were initiated by the addition of 10 nM Polθ-pol. Reaction aliquots were removed and terminated by the addition of 50 mM EDTA at the indicated time points. Radio-labeled DNA was then resolved via denaturing 20% PAGE and visualized by Typhoon PhosphorImager. Percent primer extension by single ddCMP addition at each time point was calculated from % extension of the prime-template which was determined using ImageJ software."}, "Polα": {"test_system": "Polα", "experiment": "Primer extension by recombinant Pols (selectivity)", "type": "biochemical"}, "Pol Eta": {"biological_target": "T2, Pol Eta (Homo sapiens, UniProt Q9Y253)", "T2 sequence (Q9Y253 1-713)": "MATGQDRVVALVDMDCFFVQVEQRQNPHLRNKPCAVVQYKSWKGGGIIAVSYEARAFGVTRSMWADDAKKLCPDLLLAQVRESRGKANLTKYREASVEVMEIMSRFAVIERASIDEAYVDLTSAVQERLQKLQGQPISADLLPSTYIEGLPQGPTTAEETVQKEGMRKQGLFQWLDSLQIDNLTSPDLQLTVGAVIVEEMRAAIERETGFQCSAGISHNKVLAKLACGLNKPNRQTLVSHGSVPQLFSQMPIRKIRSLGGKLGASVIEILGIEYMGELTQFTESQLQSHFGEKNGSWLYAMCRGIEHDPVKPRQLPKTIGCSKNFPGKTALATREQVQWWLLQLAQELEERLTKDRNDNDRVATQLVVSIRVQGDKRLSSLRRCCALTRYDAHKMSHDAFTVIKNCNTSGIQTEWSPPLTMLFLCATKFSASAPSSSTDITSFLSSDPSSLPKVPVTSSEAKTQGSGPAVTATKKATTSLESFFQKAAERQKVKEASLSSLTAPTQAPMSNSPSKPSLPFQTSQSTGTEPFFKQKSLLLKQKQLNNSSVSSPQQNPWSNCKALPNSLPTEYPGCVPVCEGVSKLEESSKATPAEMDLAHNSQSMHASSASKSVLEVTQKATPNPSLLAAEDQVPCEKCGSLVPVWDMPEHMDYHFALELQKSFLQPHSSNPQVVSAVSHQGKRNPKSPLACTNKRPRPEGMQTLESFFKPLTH", "experiment": "Primer extension by recombinant Pols (selectivity)", "type": "biochemical"}, "[2]": {"conditions": "selectivity panel, Pol named in Supplementary Fig. 1h"}},
  "note": "“And” between values parts separate entries of the source, which are not always exact repeats. Identical values can stand only once.",
  "data": [
    {"molecule": "CN(C(=O)Oc1c(N2CCN(CCO)C2=O)cc(C(F)(F)F)cc1C(F)(F)F)c1ccc(F)cc1", "note": "[RTx-161]", "values": [
      {"measurement": "percent suvival", "setting": "[1]; RTX-161 1 uM + ola 0.125 um", "result": "37.2624% and 27.7457% and 32.5843%"},
      {"measurement": "percent suvival", "setting": "[1]; RTX-161 1 uM + ola 0.25 um", "result": "11.4068% and 11.5607% and 13.4831%"},
      {"measurement": "percent suvival", "setting": "[1]; RTX-161 1 uM, ola 0 um", "result": "93.9163% and 101.156% and 103.371%"},
      {"measurement": "percent suvival", "setting": "[1]; RTX-161 2 uM, ola 0 um", "result": "93.5361% and 104.624% and 106.742%"},
      {"measurement": "inhibition of single nucleotide incorporation on DNA/RNA", "setting": "Polθ-pol on DNA/RNA; 2 μM RTx-161, open conformation", "result": "failed to significantly inhibit"},
      {"measurement": "Average % Extension (Single nt)", "setting": "Polθ-pol on DNA/RNA; Time 0", "result": 0.00, "unit": "%"},
      {"measurement": "% Extension (Single nt)", "setting": "Polθ-pol on DNA/RNA; Time 0", "result": 0.00, "unit": "%"},
      {"measurement": "Average % Extension (Single nt)", "setting": "Polθ-pol on DNA/RNA; Time 5", "result": 4.59, "unit": "%"},
      {"measurement": "% Extension (Single nt)", "setting": "Polθ-pol on DNA/RNA; Time 5", "result": "2.50% and 5.50% and 5.76%"},
      {"measurement": "Average % Extension (Single nt)", "setting": "Polθ-pol on DNA/RNA; Time 10", "result": 7.95, "unit": "%"},
      {"measurement": "% Extension (Single nt)", "setting": "Polθ-pol on DNA/RNA; Time 10", "result": "4.80% and 9.47% and 9.59%"},
      {"measurement": "Average % Extension (Single nt)", "setting": "Polθ-pol on DNA/RNA; Time 20", "result": 16.13, "unit": "%"},
      {"measurement": "% Extension (Single nt)", "setting": "Polθ-pol on DNA/RNA; Time 20", "result": "15.85% and 16.30% and 16.24%"},
      {"measurement": "Average % Extension (Single nt)", "setting": "Polθ-pol on DNA/RNA; Time 40", "result": 27.98, "unit": "%"},
      {"measurement": "% Extension (Single nt)", "setting": "Polθ-pol on DNA/RNA; Time 40", "result": "29.57% and 26.15% and 28.23%"},
      {"measurement": "% Extension of Control", "setting": "Polθ-pol on DNA/RNA; Time 5", "result": "47.30% and 65.75% and 74.39%"},
      {"measurement": "% Extension of Control", "setting": "Polθ-pol on DNA/RNA; Time 10", "result": "39.83% and 67.79% and 72.59%"},
      {"measurement": "% Extension of Control", "setting": "Polθ-pol on DNA/RNA; Time 20", "result": "72.60% and 71.13% and 71.98%"},
      {"measurement": "% Extension of Control", "setting": "Polθ-pol on DNA/RNA; Time 40", "result": "79.52% and 73.56% and 82.47%"},
      {"measurement": "% Full Extension", "setting": "Polα; Pol Alpha", "result": 84.67, "unit": "%"},
      {"measurement": "% Inhibition Compared to Control", "setting": "Polα; Pol Alpha", "result": -1.20, "unit": "%"},
      {"measurement": "% Relative Maximum Extension", "setting": "Polα; Pol Alpha", "result": 101.20, "unit": "%"},
      {"measurement": "inhibition of primer extension", "setting": "Polα; [2]", "result": "no inhibition"},
      {"measurement": "% Full Extension", "setting": "Pol Eta; Pol Eta", "result": 78.72, "unit": "%"},
      {"measurement": "% Inhibition Compared to Control", "setting": "Pol Eta; Pol Eta", "result": -2.54, "unit": "%"},
      {"measurement": "% Relative Maximum Extension", "setting": "Pol Eta; Pol Eta", "result": 102.54, "unit": "%"},
      {"measurement": "inhibition of primer extension", "setting": "Pol Eta; [2]", "result": "no inhibition"}
    ]}
  ]
}
